Target: S. aureus GyrB ATPase (Staphylococcus aureus, UniProt P0A0K8)
Assay: S. aureus GyrB ATPase inhibition (ammonium molybdate/malachite green phosphate detection)
Type: biochemical
Conditions: compound concentration of 1 μM
Outline: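 E. coli GyrA and S. aureus GyrB (250 pM each) with sheared salmon sperm DNA and 250 μM ATP, pH 7.5 Hepes buffer. Released phosphate detected by malachite green/ammonium molybdate at 650 nm; percent inhibition at 1 μM compound unless noted, normalized to 2% DMSO (0%) and EDTA (100%) controls.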

Chain of S. aureus GyrB ATPase (P0AES4 whole entry): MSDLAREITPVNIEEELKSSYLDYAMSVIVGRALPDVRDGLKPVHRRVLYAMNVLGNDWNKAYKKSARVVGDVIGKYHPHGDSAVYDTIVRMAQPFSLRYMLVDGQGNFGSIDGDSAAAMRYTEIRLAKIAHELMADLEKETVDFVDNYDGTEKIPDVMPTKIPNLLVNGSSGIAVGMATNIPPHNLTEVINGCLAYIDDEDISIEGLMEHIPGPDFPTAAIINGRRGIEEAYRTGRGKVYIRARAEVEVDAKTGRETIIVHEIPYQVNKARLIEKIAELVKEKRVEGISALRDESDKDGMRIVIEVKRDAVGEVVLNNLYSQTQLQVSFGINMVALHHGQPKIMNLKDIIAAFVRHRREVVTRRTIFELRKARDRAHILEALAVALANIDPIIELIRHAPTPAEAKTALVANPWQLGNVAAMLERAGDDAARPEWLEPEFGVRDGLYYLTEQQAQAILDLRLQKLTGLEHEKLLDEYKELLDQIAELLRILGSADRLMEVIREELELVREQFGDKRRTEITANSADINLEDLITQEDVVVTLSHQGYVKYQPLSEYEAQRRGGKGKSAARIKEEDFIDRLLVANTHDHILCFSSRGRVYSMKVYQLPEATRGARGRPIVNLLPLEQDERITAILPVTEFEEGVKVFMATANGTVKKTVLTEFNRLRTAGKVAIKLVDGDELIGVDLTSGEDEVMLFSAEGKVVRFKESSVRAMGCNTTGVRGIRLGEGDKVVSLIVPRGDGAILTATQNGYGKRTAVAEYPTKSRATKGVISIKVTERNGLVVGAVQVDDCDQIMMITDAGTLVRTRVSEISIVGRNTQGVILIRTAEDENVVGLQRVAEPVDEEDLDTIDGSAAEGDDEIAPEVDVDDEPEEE
Chain of S. aureus GyrB ATPase (P0A0K8 whole entry): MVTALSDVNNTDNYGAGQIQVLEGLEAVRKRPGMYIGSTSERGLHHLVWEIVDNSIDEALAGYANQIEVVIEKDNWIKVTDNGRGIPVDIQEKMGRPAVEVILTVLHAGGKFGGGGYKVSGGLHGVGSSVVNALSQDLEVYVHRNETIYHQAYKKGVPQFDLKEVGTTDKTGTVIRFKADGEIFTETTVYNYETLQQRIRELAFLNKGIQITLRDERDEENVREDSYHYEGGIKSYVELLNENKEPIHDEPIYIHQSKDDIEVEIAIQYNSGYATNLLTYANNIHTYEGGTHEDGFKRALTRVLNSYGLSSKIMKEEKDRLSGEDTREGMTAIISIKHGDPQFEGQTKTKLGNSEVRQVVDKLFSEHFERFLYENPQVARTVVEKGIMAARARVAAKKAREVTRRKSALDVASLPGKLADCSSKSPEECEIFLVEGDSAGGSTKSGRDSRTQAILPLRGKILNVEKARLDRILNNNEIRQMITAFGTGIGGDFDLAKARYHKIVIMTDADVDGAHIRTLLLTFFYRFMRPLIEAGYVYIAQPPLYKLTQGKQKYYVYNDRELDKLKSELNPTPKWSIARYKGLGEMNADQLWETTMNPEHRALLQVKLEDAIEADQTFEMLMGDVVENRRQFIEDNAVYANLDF

Structure (SMILES)	inhibition at 1 µM
COCCn1ccnc1-c1nc(N2CC[C@@H](NC(=O)c3[nH]c(C)c(Cl)c3Cl)[C@@H](F)C2)sc1C(=O)OC [Example 65]	98.3%
CCOC(=O)c1sc(N2CC[C@@H](NC(=O)c3[nH]c(C)c(Cl)c3Cl)[C@@H](F)C2)nc1-c1ncccc1F [Example 102, ethyl 2-((3S,4R)-4-(3,4-dichloro-5-methyl-1H-pyrrole-2-carboxamido)-3-fluoropiperidin-1-yl)-4-(3-fluoropyridin-2-yl)thiazole-5-carboxylate]	81.4%
CCOC(=O)c1sc(N2CC[C@@H](NC(=O)c3[nH]c(C)c(Cl)c3Cl)[C@@H](F)C2)nc1-c1cn(C)cn1 [Example 78]	101%
CNc1nc(-c2nc(N3CC[C@@H](NC(=O)c4[nH]c(C)c(Cl)c4Cl)[C@@H](OC)C3)sc2C(=O)OC)cs1 [Example 72]	101%
CCOC(=O)c1sc(N2CC[C@@H](NC(=O)c3[nH]c(C)c(Cl)c3Cl)[C@@H](F)C2)nc1-c1ncccn1 [Example 45]	100%
COC(=O)c1sc(N2CC[C@@H](NC(=O)c3[nH]c(C)c(C#N)c3Cl)[C@@H](OC)C2)nc1-c1ncnn1C [Example 80]	99.7%
Cc1[nH]c(C(=O)N[C@@H]2CCN(c3nc(-c4cn(C)cn4)c(C(=O)O)s3)C[C@@H]2F)c(Cl)c1Cl [Example 41, 2-((3S,4R)-4-{[(3,4-Dichloro-5-methyl-1H-pyrrol-2-yl)carbonyl]amino}-3-fluoropiperidin-1-yl)-4-(1-methyl-1H-imidazol-4-yl)-1,3-thiazole-5-carboxylic acid]	104%
COC(=O)c1sc(N2CC[C@@H](NC(=O)c3[nH]c(C)c(Cl)c3Cl)[C@@H](F)C2)nc1-c1csc(N(C)C)n1 [Example 76]	99.2%
COC(=O)c1sc(N2CC[C@@H](NC(=O)c3[nH]c(C)c(Cl)c3Cl)[C@@H](F)C2)nc1-c1nccs1 [Example 47]	101%
CCOC(=O)c1sc(N2CC[C@@H](NC(=O)c3[nH]c(C)c(Cl)c3Cl)[C@@H](F)C2)nc1-c1cc(OC)ccn1 [Example 98, Ethyl 2-((3S,4R)-4-(3,4-dichloro-5-methyl-1H-pyrrole-2-carboxamido)-3-fluoropiperidin-1-yl)-4-(4-methoxypyridin-2-yl)thiazole-5-carboxylate]	84.4%
COCn1ccnc1-c1nc(N2CC[C@@H](NC(=O)c3[nH]c(C)c(Cl)c3Cl)[C@@H](OC)C2)sc1C(=O)OC [Example 58, methyl 2-((3S,4R)-4-{[(3,4-dichloro-5-methyl-1H-pyrrol-2-yl)carbonyl]amino}-3-methoxypiperidin-1-yl)-4-[1-(methoxymethyl)-1H-imidazol-2-yl]-1,3-thiazole-5-carboxylate]	99.5%
COC(=O)c1sc(N2CC[C@@H](NC(=O)c3[nH]c(C)c(Cl)c3Cl)[C@@H](OC)C2)nc1-c1ncc(C)nc1C [Example 93, methyl 2-((3S,4R)-4-(3,4-dichloro-5-methyl-1H-pyrrole-2-carboxamido)-3-methoxypiperidin-1-yl)-4-(3,5-dimethylpyrazin-2-yl)thiazole-5-carboxylate]	99.3%
CCOC(=O)c1sc(N2CC[C@@H](NC(=O)c3[nH]c(C)c(Cl)c3Cl)[C@@H](OC)C2)nc1-c1cc(N(C)C)nc(N(C)C)n1 [Example 50]	97%
COC(=O)c1sc(N2CC[C@@H](NC(=O)c3[nH]c(C)c(Cl)c3C#N)[C@@H](OC)C2)nc1-c1cn(C)nn1 [Example 103, methyl 2-((3S,4R)-4-(4-chloro-3-cyano-5-methyl-1H-pyrrole-2-carboxamido)-3-methoxypiperidin-1-yl)-4-(1-methyl-1H-1,2,3-triazol-4-yl)thiazole-5-carboxylate]	85.7%
CNc1nc(-c2nc(N3CC[C@@H](NC(=O)c4[nH]c(C)c(Cl)c4Cl)[C@@H](OC)C3)sc2C(=O)O)cs1 [Example 34, 2-((3S,4R)-4-{[(3,4-Dichloro-5-methyl-1H-pyrrol-2-yl)carbonyl]amino}-3-methoxypiperidin-1-yl)-2′-(methylamino)-4,4′-bi-1,3-thiazole-5-carboxylic acid]	99.6%

Reference: patent US20080312255A1 (ASTRAZENECA AB, priority 2007, published 2008)
